According to PMC11889964, “Surveying helix 12 dynamics within constitutively active estrogen receptors using bipartite tetracysteine display” (The Journal of Biological Chemistry, 2025):
Positions count from the first letter of the chain named.

Columns and labels:
Assay type in all cases: binding
ERα-LBD-ΔC4 [1] = molecular target: T1, ERα-LBD-ΔC4 (Homo sapiens, UniProt P03372, A546C/C417S/C530A/E380C/H547C); test: Endpoint fluorescence FlAsH-ER assay; conditions: unliganded ERα-LBD-ΔC4; 1 μM FlAsH-EDT2, 6 h
T1 construct: pMCSG7 leader with TEV site (ENLYFQ/SNA); made in house; host or cells: E. coli BL21(DE3)
T1 sequence (P03372 with tags, fused parts or gaps E380C/C417S/C530A/A546C/H547C): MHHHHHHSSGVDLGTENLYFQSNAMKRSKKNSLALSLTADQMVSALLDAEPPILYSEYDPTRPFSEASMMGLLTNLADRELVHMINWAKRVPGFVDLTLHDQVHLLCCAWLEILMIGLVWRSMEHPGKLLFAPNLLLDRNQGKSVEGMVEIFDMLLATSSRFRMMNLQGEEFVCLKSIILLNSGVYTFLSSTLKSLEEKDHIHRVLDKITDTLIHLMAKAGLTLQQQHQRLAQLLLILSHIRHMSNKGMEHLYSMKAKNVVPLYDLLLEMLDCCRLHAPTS
Description: Endpoint fluorescence experiments were performed in triplicate on 384-well black, flat-bottom plates (catalog no.: 3575; Corning) with wells containing 25 μl total reaction volume. The protein (10 μM) was incubated in FlAsH binding buffer (50 mM Tris base, 500 mM KCl, 2 mM DTT, 1 mM EDTA, 1 mM Na3VO4, 10% glycerol, pH 8.0) supplemented with 1 mM TCEP overnight at room temperature. […] Following incubation, 1 μl aliquots of EDT and FlAsH-EDT2 in binding buffer were added at final concentrations of 10 μM and 1 μM, respectively. The reaction mixtures were then allowed to incubate in the dark for 6 h at room temperature. Following incubation, the fluorescence of each sample was measured using a SpectraMax M5e multimode plate reader (Molecular Devices), with an excitation wavelength of 508 nm and an emission wavelength of 530 nm. Data were collected using SoftMax Pro software, version 6.4 (Molecular Devices) and processed using Kaleidagraph, version 4.5 (Synergy).

ERα-LBD-ΔC4(Y537S) [2] = molecular target: T2, ERα-LBD-ΔC4(Y537S) (Homo sapiens, UniProt P03372, A546C/C417S/C530A/E380C/H547C/Y537S); test: Titration FlAsH-ER assay, FlAsH apparent equilibrium dissociation constants (Kapp)
T2 construct: pMCSG7 leader with TEV site (ENLYFQ/SNA); made in house; host or cells: E. coli BL21(DE3)
T2 sequence (P03372 with tags, fused parts or gaps E380C/C417S/C530A/Y537S/A546C/H547C): T1 sequence (P03372 with tags, fused parts or gaps E380C/C417S/C530A/A546C/H547C) with Y264S
Description: (§1) Titration experiments were performed on 384-well black, flat-bottom plates (catalog no.: 3575; Corning) with wells containing 25 μl total reaction volume^. ERα-LBDs (10 μM) were incubated in 25 μl of binding buffer supplemented with 1 mM TCEP overnight at room temperature. […] The solutions were then transferred to a fresh 384-well black, flat-bottom plate (catalog no.: 3575; Corning) and serially diluted with binding buffer. EDT and FlAsH-EDT2 (1 μl) in binding buffer were then immediately added at final concentrations of 10 μM and 1 μM, respectively. The reactions were then allowed to incubate in the dark for 6 h at room temperature. Fluorescence counts for each sample were then measured using a SpectraMax M5e multimode plate reader, with an excitation wavelength of 508 nm and an emission wavelength of 530 nm. Data were processed using SoftMax Pro software, version 6.4 and Kaleidagraph, version 4.5. The Kapp for each complex was defined by curve fitting using the equation below. Fobs=Fmin+(Fmax−Fmin/2L)(L+P+Kapp−((L+P+Kapp)^2−(4LP))^0.5) where Fobs is the observed fluorescence; P represents the total protein concentration; L is the total concentration of FlAsH-EDT2; Fmin is the minimum fluorescence value; Fmax represents the maximum fluorescence value; and Kapp is the apparent equilibrium dissociation constant.

ERα-LBD-ΔC4 [3] = molecular target: T1, ERα-LBD-ΔC4; test: as above
Description: as §1

ERα-LBD-ΔC4(D538G) [4] = molecular target: T3, ERα-LBD-ΔC4(D538G) (Homo sapiens, UniProt P03372, A546C/C417S/C530A/D538G/E380C/H547C); test: as above
T3 construct: pMCSG7 leader with TEV site (ENLYFQ/SNA); made in house; host or cells: E. coli BL21(DE3)
T3 sequence (P03372 with tags, fused parts or gaps E380C/C417S/C530A/D538G/A546C/H547C): T1 sequence (P03372 with tags, fused parts or gaps E380C/C417S/C530A/A546C/H547C) with D265G
Description: as §1

ERα-LBD-ΔC4(Y537S) [5] = molecular target: T2, ERα-LBD-ΔC4(Y537S); test: Kinetic FlAsH-ER assay, FlAsH apparent rate constants (kon); conditions: 1 μM FlAsH-EDT2, 10 μM protein
Description: (§2) Kinetic experiments were performed on 384-well black, flat-bottom plates (catalog no.: 3575; Corning) with wells containing 25 μl total reaction volume. ERα-LBDs (10 μM) were incubated in 25 μl of binding buffer supplemented with 1 mM TCEP overnight at room temperature. […] Aliquots of EDT and FlAsH-EDT2 (1 μl) at respective final concentrations of 10 μM and 1 μM in binding buffer were then added to the samples. The change in fluorescence of each sample was then collected over 6 h with measurements taken at 1 min intervals. Data were collected using a SpectraMax M5e multimode plate reader, with an excitation wavelength of 508 nm and an emission wavelength of 530 nm. The data were processed using Kaleidagraph, version 4.5, and apparent rate constants (kon) were determined through curve fitting using the equation below: Fobs=Fmin+(Fmax−Fmin)(1−e^(−kT)) where Fobs is the observed fluorescence; Fmin is the minimum fluorescence value; Fmax represents the maximum fluorescence value; T is time in minutes; and k is the apparent rate constant.

ERα-LBD-ΔC4 [6] = molecular target: T1, ERα-LBD-ΔC4; test: as above; conditions: 1 μM FlAsH-EDT2, 10 μM protein
Description: as §2

ERα-LBD-ΔC4(D538G) [7] = molecular target: T3, ERα-LBD-ΔC4(D538G); test: as above; conditions: 1 μM FlAsH-EDT2, 10 μM protein
Description: as §2

O=C(O)c1ccccc1-c1c2ccc(=O)c([As]3SCCS3)c-2oc2c([As]3SCCS3)c(O)ccc12 [FlAsH]
increase in endpoint fluorescence compared with ERα-LBD-ΔC0 (ERα-LBD-ΔC4 [1]): 10 fold
Kd (ERα-LBD-ΔC4(Y537S) [2]; liganded receptor (+E2)): 540 ± 330 nM
Kd (ERα-LBD-ΔC4(Y537S) [2]; unliganded receptor (−E2)): 900 ± 650 nM
Kd (ERα-LBD-ΔC4 [3]; liganded receptor (+E2)): 1220 ± 700 nM
Kd (ERα-LBD-ΔC4 [3]; unliganded receptor (−E2)): 940 ± 560 nM
Kd (ERα-LBD-ΔC4(D538G) [4]; liganded receptor (+E2)): 160 ± 60 nM
Kd (ERα-LBD-ΔC4(D538G) [4]; unliganded receptor (−E2)): 570 ± 370 nM
kon (ERα-LBD-ΔC4(Y537S) [5]; liganded receptor (+10 μM E2)): 900 M⁻¹ s⁻¹
kon (ERα-LBD-ΔC4(Y537S) [5]; unliganded receptor (−E2)): 491 M⁻¹ s⁻¹
kon (ERα-LBD-ΔC4 [6]; liganded receptor (+10 μM E2)): 310 M⁻¹ s⁻¹
kon (ERα-LBD-ΔC4 [6]; unliganded receptor (−E2)): 447 M⁻¹ s⁻¹
kon (ERα-LBD-ΔC4(D538G) [7]; liganded receptor (+10 μM E2)): 1170 M⁻¹ s⁻¹
kon (ERα-LBD-ΔC4(D538G) [7]; unliganded receptor (−E2)): 838 M⁻¹ s⁻¹
